Reference: patent US12495798B2, “Nicotinamide compound and herbicidal composition comprising compound” (KOREA RESEARCH INSTITUTE OF CHEMICAL TECHNOLOGY, priority 2019, dated 2025)

How the values were obtained:
Type in all cases: in vivo
wheat = assay: Phytotoxicity test for upland field crops (foliar treatment test); design: key: 0 (no harm); 9 (complete withered)
Method in brief: (§1)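 Greenhouse-grown crops (30±5 °C, 14/10 h light/dark) in soil pots were foliar-sprayed with compound in 33% acetone/0.1% Tween-20 at 19˜300 g a.i./ha, 100 ml per m^2. Injury was graded 0 (no harm) to 9 (complete withered) versus untreated control at 7 and 14 days after treatment, or 21 days if needed.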

rice = assay: as above; design: key: 0 (no harm); 9 (complete withered)
Method in brief: as §1

cotton = assay: as above; design: key: 0 (no harm); 9 (complete withered)
Method in brief: as §1

corn = assay: as above; design: key: 0 (no harm); 9 (complete withered)
Method in brief: as §1

soybean = assay: as above; design: key: 0 (no harm); 9 (complete withered)
Method in brief: as §1

black nightshade = assay: Herbicidal activity test against upland field weeds (foliar treatment test); design: key to Foliar treatment herbicidal activity, black nightshade: 0 (no control); 100 (complete control); details: 50 g ai/ha, scale 0-100
Method in brief: (§2)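 Weeds were raised from seed or rootstocks in horticultural soil in a greenhouse (30±5° C., 14/10 h light/dark), then foliage was hand-sprayed with compound at 50 or 75 g a.i./ha in 50% acetone with 0.1% Tween-20. Control was scored visually 0–100 against untreated plants after 14 days, or 21 if needed.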

crabgrass = assay: as above; details: Digitaria sanguinalis, 50 g ai/ha, scale 0-100
Method in brief: as §2

sorghum = assay: as above; details: Sorghum, 50 g ai/ha, scale 0-100
Method in brief: as §2

velvetleaf = assay: as above; details: Abutilon theophrasti, 50 g ai/ha, scale 0-100, read-out: Foliar treatment herbicidal activity, velvet leaf
Method in brief: as §2

[1] = 50 g ai/ha, Wheat (7 days after treatment)
[2] = 50 g ai/ha, Wheat (14 days after treatment)
[3] = 100 g ai/ha, Wheat (7 days after treatment)
[4] = 100 g ai/ha, Wheat (14 days after treatment)
[5] = 50 g ai/ha, Rice (7 days after treatment)
[6] = 50 g ai/ha, Rice (14 days after treatment)
[7] = 100 g ai/ha, Rice (7 days after treatment)
[8] = 100 g ai/ha, Rice (14 days after treatment)
[9] = 50 g ai/ha, Cotton (7 days after treatment)
[10] = 50 g ai/ha, Cotton (14 days after treatment)
[11] = 100 g ai/ha, Cotton (7 days after treatment)
[12] = 100 g ai/ha, Cotton (14 days after treatment)
[13] = 50 g ai/ha, Corn (7 days after treatment)
[14] = 50 g ai/ha, Corn (14 days after treatment)
[15] = 100 g ai/ha, Corn (7 days after treatment)
[16] = 100 g ai/ha, Corn (14 days after treatment)
[17] = 50 g ai/ha, Soybean (7 days after treatment)
[18] = 50 g ai/ha, Soybean (14 days after treatment)
[19] = 100 g ai/ha, Soybean (7 days after treatment)
[20] = 100 g ai/ha, Soybean (14 days after treatment)

CON(Cc1nnn(C)n1)Cc1nc(C(F)(F)F)ccc1C(=O)Nc1nnnn1C [Compound No. 2-97, 2-((methoxy((2-methyl-2H-tetrazol-5-yl)methyl)amino)methyl)-N-(1-methyl-1H-tetrazol-5-yl)-6-(trifluoromethyl)nicotinamide] was tested, and the “Foliar treatment phytotoxicity, Wheat” value (wheat; [1]) was 0, the “Foliar treatment phytotoxicity, Wheat” value (wheat; [2]) was 0 and the “Foliar treatment phytotoxicity, Wheat” value (wheat; [3]) was 0. For the same molecule, the “Foliar treatment phytotoxicity, Wheat” value (wheat; [4]) was 0, the “Foliar treatment phytotoxicity, Rice” value (rice; [5]) was 6 and the “Foliar treatment phytotoxicity, Rice” value (rice; [6]) was 8. The “Foliar treatment phytotoxicity, Rice” value (rice; [7]) was 6, the “Foliar treatment phytotoxicity, Rice” value (rice; [8]) was 9 and the “Foliar treatment phytotoxicity, Cotton” value (cotton; [9]) was 5. The “Foliar treatment phytotoxicity, Cotton” value (cotton; [10]) was 9, the “Foliar treatment phytotoxicity, Cotton” value (cotton; [11]) was 6 and the “Foliar treatment phytotoxicity, Cotton” value (cotton; [12]) was 9. For the same molecule, the “Foliar treatment phytotoxicity, Corn” value (corn; [13]) was 0, the “Foliar treatment phytotoxicity, Corn” value (corn; [14]) was 0 and the “Foliar treatment phytotoxicity, Corn” value (corn; [15]) was 2. For the same molecule, the “Foliar treatment phytotoxicity, Corn” value (corn; [16]) was 1, the “Foliar treatment phytotoxicity, Soybean” value (soybean; [17]) was 5 and the “Foliar treatment phytotoxicity, Soybean” value (soybean; [18]) was 6. The “Foliar treatment phytotoxicity, Soybean” value (soybean; [19]) was 7, the “Foliar treatment phytotoxicity, Soybean” value (soybean; [20]) was 9 and the “Foliar treatment herbicidal activity, black nightshade” value (shortened to “Foliar treatment herbicidal activity”) (black nightshade) was 100. For the same molecule, the pest or weed control at 50 g/ha (crabgrass) was 95%, the plant injury at 50 g/ha (sorghum) was 50% and the pest or weed control at 50 g/ha (velvetleaf) was 95%.

In the case of Cn1nnc(CSCc2nc(C(F)(F)F)ccc2C(=O)N(c2nnnn2C)S(C)(=O)=O)n1 [Compound No. 2-110, N-(1-methyl-1H-tetrazol-5-yl)-2-((((2-methyl-2H-tetrazol-5-yl)methyl)thio)methyl)-N-(methylsulfonyl)-6-(trifluoromethyl)nicotinamide], the “Foliar treatment phytotoxicity, Wheat” value (wheat; [1]) is reported as 0, the “Foliar treatment phytotoxicity, Wheat” value (wheat; [2]) is reported as 0 and the “Foliar treatment phytotoxicity, Wheat” value (wheat; [3]) is reported as 0. For the same molecule, the “Foliar treatment phytotoxicity, Wheat” value (wheat; [4]) was 0, the “Foliar treatment phytotoxicity, Corn” value (corn; [13]) was 0 and the “Foliar treatment phytotoxicity, Corn” value (corn; [14]) was 0. The “Foliar treatment phytotoxicity, Corn” value (corn; [15]) was 0, the “Foliar treatment phytotoxicity, Corn” value (corn; [16]) was 0 and the “Foliar treatment herbicidal activity” value (black nightshade) was 100. The pest or weed control at 50 g/ha (crabgrass) was 70%, the plant injury at 50 g/ha (sorghum) was 20% and the pest or weed control at 50 g/ha (velvetleaf) was 80%.

With Cc1nc(COCc2nc(C(F)(F)F)ccc2C(=O)Nc2nnnn2C)nn1C [Compound No. 2-116, 2-(((1,5-dimethyl-1H-1,2,4-triazol-3-yl)methoxy)methyl)-N-(1-methyl-1H-tetrazol-5-yl)-6-(trifluoromethyl)nicotinamide] the “Foliar treatment phytotoxicity, Wheat” value (wheat; [1]) was 0, the “Foliar treatment phytotoxicity, Wheat” value (wheat; [2]) was 0 and the “Foliar treatment phytotoxicity, Wheat” value (wheat; [3]) was 0. For the same molecule, the “Foliar treatment phytotoxicity, Wheat” value (wheat; [4]) was 0, the “Foliar treatment phytotoxicity, Rice” value (rice; [5]) was 4 and the “Foliar treatment phytotoxicity, Rice” value (rice; [6]) was 5. The “Foliar treatment phytotoxicity, Rice” value (rice; [7]) was 4, the “Foliar treatment phytotoxicity, Rice” value (rice; [8]) was 5 and the “Foliar treatment phytotoxicity, Cotton” value (cotton; [9]) was 2. The “Foliar treatment phytotoxicity, Cotton” value (cotton; [10]) was 1, the “Foliar treatment phytotoxicity, Cotton” value (cotton; [11]) was 3 and the “Foliar treatment phytotoxicity, Cotton” value (cotton; [12]) was 2. For the same molecule, the “Foliar treatment phytotoxicity, Corn” value (corn; [13]) was 1, the “Foliar treatment phytotoxicity, Corn” value (corn; [14]) was 0 and the “Foliar treatment phytotoxicity, Corn” value (corn; [15]) was 2. The “Foliar treatment phytotoxicity, Corn” value (corn; [16]) was 2, the “Foliar treatment phytotoxicity, Soybean” value (soybean; [17]) was 2 and the “Foliar treatment phytotoxicity, Soybean” value (soybean; [18]) was 3. The “Foliar treatment phytotoxicity, Soybean” value (soybean; [19]) was 3, the “Foliar treatment phytotoxicity, Soybean” value (soybean; [20]) was 5 and the “Foliar treatment herbicidal activity” value (black nightshade) was 100. It also gave a pest or weed control at 50 g/ha (crabgrass) of 80%, a plant injury at 50 g/ha (sorghum) of 40% and a pest or weed control at 50 g/ha (velvetleaf) of 90%.

Cn1nc(COCc2nc(C(F)(F)F)ccc2C(=O)Nc2nnnn2C)nc1C#N [Compound No. 2-134, 2-(((5-cyano-1-methyl-1H-1,2,4-triazol-3-yl)methoxy)methyl)-N-(1-methyl-1H-tetrazol-5-yl)-6-(trifluoromethyl)nicotinamide] was tested, and the “Foliar treatment phytotoxicity, Wheat” value (wheat; [1]) was 0, the “Foliar treatment phytotoxicity, Wheat” value (wheat; [2]) was 0 and the “Foliar treatment phytotoxicity, Wheat” value (wheat; [3]) was 0. For the same molecule, the “Foliar treatment phytotoxicity, Wheat” value (wheat; [4]) was 0, the “Foliar treatment phytotoxicity, Rice” value (rice; [5]) was 3 and the “Foliar treatment phytotoxicity, Rice” value (rice; [6]) was 6. The “Foliar treatment phytotoxicity, Rice” value (rice; [7]) was 3, the “Foliar treatment phytotoxicity, Rice” value (rice; [8]) was 7 and the “Foliar treatment phytotoxicity, Cotton” value (cotton; [9]) was 3. For the same molecule, the “Foliar treatment phytotoxicity, Cotton” value (cotton; [10]) was 2, the “Foliar treatment phytotoxicity, Cotton” value (cotton; [11]) was 3 and the “Foliar treatment phytotoxicity, Cotton” value (cotton; [12]) was 8. For the same molecule, the “Foliar treatment phytotoxicity, Corn” value (corn; [13]) was 0, the “Foliar treatment phytotoxicity, Corn” value (corn; [14]) was 0 and the “Foliar treatment phytotoxicity, Corn” value (corn; [15]) was 0. The “Foliar treatment phytotoxicity, Corn” value (corn; [16]) was 0, the “Foliar treatment phytotoxicity, Soybean” value (soybean; [17]) was 4 and the “Foliar treatment phytotoxicity, Soybean” value (soybean; [18]) was 6. The “Foliar treatment phytotoxicity, Soybean” value (soybean; [19]) was 4, the “Foliar treatment phytotoxicity, Soybean” value (soybean; [20]) was 8 and the “Foliar treatment herbicidal activity” value (black nightshade) was 100. It also gave a pest or weed control at 50 g/ha (crabgrass) of 80%, a plant injury at 50 g/ha (sorghum) of 10% and a pest or weed control at 50 g/ha (velvetleaf) of 60%.

For Cc1nc(COCc2nc(C(F)(F)F)ccc2C(=S)Nc2nnnn2C)nn1C [Compound No. 2-117, 2-(((1,5-dimethyl-1H-1,2,4-triazol-3-yl)methoxy)methyl)-N-(1-methyl-1H-tetrazol-5-yl)-6-(trifluoromethyl)pyridin-3-carbothioamide], the “Foliar treatment phytotoxicity, Wheat” value (wheat; [1]) was 0, the “Foliar treatment phytotoxicity, Wheat” value (wheat; [2]) was 0 and the “Foliar treatment phytotoxicity, Wheat” value (wheat; [3]) was 1. For the same molecule, the “Foliar treatment phytotoxicity, Wheat” value (wheat; [4]) was 0, the “Foliar treatment phytotoxicity, Rice” value (rice; [5]) was 3 and the “Foliar treatment phytotoxicity, Rice” value (rice; [6]) was 6. For the same molecule, the “Foliar treatment phytotoxicity, Rice” value (rice; [7]) was 4, the “Foliar treatment phytotoxicity, Rice” value (rice; [8]) was 5 and the “Foliar treatment phytotoxicity, Cotton” value (cotton; [9]) was 3. The “Foliar treatment phytotoxicity, Cotton” value (cotton; [10]) was 2, the “Foliar treatment phytotoxicity, Cotton” value (cotton; [11]) was 4 and the “Foliar treatment phytotoxicity, Cotton” value (cotton; [12]) was 2. The “Foliar treatment phytotoxicity, Corn” value (corn; [13]) was 1, the “Foliar treatment phytotoxicity, Corn” value (corn; [14]) was 1 and the “Foliar treatment phytotoxicity, Corn” value (corn; [15]) was 3. For the same molecule, the “Foliar treatment phytotoxicity, Corn” value (corn; [16]) was 2, the “Foliar treatment phytotoxicity, Soybean” value (soybean; [17]) was 3 and the “Foliar treatment phytotoxicity, Soybean” value (soybean; [18]) was 5. For the same molecule, the “Foliar treatment phytotoxicity, Soybean” value (soybean; [19]) was 4, the “Foliar treatment phytotoxicity, Soybean” value (soybean; [20]) was 6 and the “Foliar treatment herbicidal activity” value (black nightshade) was 100. The pest or weed control at 50 g/ha (crabgrass) was 95%, the plant injury at 50 g/ha (sorghum) was 40% and the pest or weed control at 50 g/ha (velvetleaf) was 90%.
